In the assay the target is Human plasma kallikrein (Homo sapiens (Human), UniProt P03952). The experiment in a line: In vitro plasma kallikrein inhibition assay (chromogenic substrate D-Pro-Phe-Arg-pNa, absorbance at 405 nm, IC50 determination). The format is biochemical. Particulars: for IC50: read-out: KLKB1 pIC50 (converted).

Where a name gives a salt, the structure may show the parent alone.

Chain of Human plasma kallikrein (P03952 391-638): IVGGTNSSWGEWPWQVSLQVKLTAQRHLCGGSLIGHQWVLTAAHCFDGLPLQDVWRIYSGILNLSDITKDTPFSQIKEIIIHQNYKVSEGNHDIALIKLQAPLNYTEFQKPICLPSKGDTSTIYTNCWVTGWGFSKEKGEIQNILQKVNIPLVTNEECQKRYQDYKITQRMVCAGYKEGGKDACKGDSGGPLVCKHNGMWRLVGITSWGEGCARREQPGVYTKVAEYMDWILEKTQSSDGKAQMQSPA
Chain of Human plasma kallikrein (P03952 20-390 partner): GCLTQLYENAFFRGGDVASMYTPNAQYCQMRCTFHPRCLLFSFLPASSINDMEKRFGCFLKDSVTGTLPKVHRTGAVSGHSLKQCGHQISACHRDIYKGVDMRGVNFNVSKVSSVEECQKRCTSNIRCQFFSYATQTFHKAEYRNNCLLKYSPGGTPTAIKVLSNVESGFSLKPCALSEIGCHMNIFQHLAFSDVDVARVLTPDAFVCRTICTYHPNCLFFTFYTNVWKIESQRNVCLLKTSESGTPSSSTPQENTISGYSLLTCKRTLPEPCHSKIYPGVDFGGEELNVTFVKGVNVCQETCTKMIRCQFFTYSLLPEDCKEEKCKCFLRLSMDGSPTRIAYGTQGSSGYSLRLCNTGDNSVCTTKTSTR

For the molecule `N=C(N)c1ccc(CNC(=O)c2ccc3c(c2)[C@@H]2O[C@H]3c3ccc(-n4cccn4)cc32)cc1` (single isomer, unassigned) [Example 305], the IC50 was 8.91 nM.

Turning to `Cc1cc(C(=N)N)ccc1CNC(=O)c1ccc2c(c1)[C@@H]1O[C@H]2c2ccc(-c3ccc(F)cc3F)cc21` (single isomer, unassigned) [Example 306], the IC50 was 1 nM.

Take `N=C(N)c1ccc(CNC(=O)c2ccc3c(c2)[C@@H]2O[C@H]3c3ccc(N4CC(F)(F)C4)cc32)cc1` (single isomer, unassigned) [Example 307]: the IC50 was 1 nM.

As to `Cc1cc(C(=N)N)ccc1CNC(=O)c1ccc2c(c1)[C@@H]1O[C@H]2c2ccc(-n3cccn3)cc21` (single isomer, unassigned) [Example 312], the IC50 is 1 nM.

With `O=C(NCC1CNC1)c1ccc2c(c1)[C@@H]1O[C@H]2c2ccc(-c3ccc(F)cc3F)cc21` (single isomer, unassigned) [Example 323], the IC50 was 100000 nM.

Take `O=C(N[C@@H]1CCNC1)c1ccc2c(c1)[C@@H]1O[C@H]2c2ccc(-c3ccc(F)cc3F)cc21` (single isomer, unassigned) [Example 324]: the IC50 is 100000 nM.

In the case of `O=C(N[C@H]1CCNC1)c1ccc2c(c1)[C@@H]1O[C@H]2c2ccc(-c3ccc(F)cc3F)cc21` (single isomer, unassigned) [Example 325], the IC50 is 42700 nM.

`N=C(N)c1ccc(CNC(=O)c2ccc3c(c2)[C@@H]2O[C@H]3c3ccc(C4CC4)cc32)nc1` (single isomer, unassigned) [Example 327]: the IC50 is 427 nM.

On to `CC(C)c1ccc2c(c1)[C@H]1O[C@@H]2c2ccc(C(=O)NCc3ccc(C(=N)N)cc3)cc21` (single isomer, unassigned) [Example 328], for which the IC50 was 7.08 nM.

Turning to `N=C(N)c1ccc(CNC(=O)c2ccc3c(c2)[C@@H]2O[C@H]3c3ccc(-c4ccc(F)cc4)cc32)c(F)c1` (single isomer, unassigned) [Example 329], the IC50 is 1 nM.

Consider `Cc1cc(C(=N)N)cc(C)c1CNC(=O)c1ccc2c(c1)[C@@H]1O[C@H]2c2ccc(C3CC3)cc21` (single isomer, unassigned) [Example 331], for which the IC50 was 1 nM.

For the molecule `N=C(N)c1ccc(CNC(=O)c2ccc3c(c2)[C@@H]2O[C@H]3c3ccc(-c4ccc(F)cc4F)cc32)nc1` (single isomer, unassigned) [Example 332], the IC50 is 63.1 nM.

In the case of `N=C(N)c1cc(F)c(CNC(=O)c2ccc3c(c2)[C@@H]2O[C@H]3c3ccc(N4CCS(=O)(=O)CC4)cc32)c(F)c1` (single isomer, unassigned) [Example 336], the IC50 is 5.01 nM.

On to `N=C(N)c1ccc(CNC(=O)c2ccc3c(c2)[C@@H]2O[C@H]3c3ccc(N4CCS(=O)(=O)CC4)cc32)cc1` (single isomer, unassigned) [Example 337], for which the IC50 is 26.9 nM.

As to `COc1cc(CNC(=O)c2ccc3c(c2)[C@@H]2O[C@H]3c3ccc(-c4ccc(F)cc4F)cc32)ccc1C(=N)N` (single isomer, unassigned) [Example 338], the IC50 is 5.89 nM.

As for `O=C(NC1CCCNCC1)c1ccc2c(c1)[C@@H]1O[C@H]2c2ccc(-c3ccc(F)cc3F)cc21` (single isomer, unassigned) [Example 343], the IC50 is 100000 nM.

Turning to `Nc1cc(NC(=O)c2ccc3c(c2)[C@@H]2O[C@H]3c3ccc(-c4ccc(F)cc4F)cc32)ccn1` (single isomer, unassigned) [Example 347], the IC50 was 100000 nM.

With `CCc1cc2c(cc1CC)[C@H]1O[C@@H]2c2ccc(C(=O)NCc3ccc(C(=N)N)cc3)cc21` (single isomer, unassigned) [Example 392], the IC50 was 1 nM.

On to `N=C(N)c1ccc(CNC(=O)c2ccc3c(c2)[C@H]2O[C@@H]3c3cc(C4CC4)c(C4CC4)cc32)cc1` (single isomer, unassigned) [Example 399], for which the IC50 was 100 nM.

With `N=C(N)c1ccc(CNC(=O)c2ccc3c(c2)[C@@H]2O[C@H]3c3cc(C4CC4)c(C4CC4)cc32)cc1` (single isomer, unassigned) [Example 400], the IC50 is 1 nM.

Regarding `COc1cc(N)nc(C)c1CNC(=O)c1ccc2c(c1)C1OC2c2ccc(-c3ccc(F)cc3F)cc21` (stereo not drawn) [Example 80], the “KLKB1 pIC50” value is on record as 7.57.

As to `COc1cc(N)nc(C)c1CNC(=O)c1ccc2c(c1)C1OC2c2ccc(-c3ccc(Cl)c(F)c3F)cc21` (stereo not drawn) [Example 109, trifluoroacetate salt], the “KLKB1 pIC50” value is given as 7.59.

For the molecule `NC(=NO)c1ccc(CNC(=O)c2ccc3c(c2)[C@@H]2O[C@H]3c3ccc(-c4ccc(F)cc4F)cc32)cc1` [Example 203, (1R,8S)-12-(2,4-difluorophenyl)-N-{[4-(N′-hydroxycarbamimidoyl)phenyl]methyl}-15-oxatetracyclo[6.6.1.0^2,^7.0^9,1^4] pentadeca-2,4,6,9,11,13-hexaene-4-carboxamide], the “KLKB1 pIC50” value was 5.98.

As for `NC(=NO)c1ccc(CNC(=O)c2ccc3c(c2)[C@@H]2O[C@H]3c3ccc(-c4ccccc4F)cc32)cc1` [Example 204, (1R,8S)-12-(2-fluorophenyl)-N-{[4-(N′-hydroxycarbamimidoyl)phenyl]methyl}-15-oxatetracyclo[6.6.1.0^2,^7.0^9,1^4] pentadeca-2,4,6,9,11,13-hexaene-4-carboxamide], the “KLKB1 pIC50” value is 6.03.

Consider `CON=C(N)c1ccc(CNC(=O)c2ccc3c(c2)[C@@H]2O[C@H]3c3ccc(-c4ccc(F)cc4F)cc32)cc1` [Example 225], for which the “KLKB1 pIC50” value is given as 5.

For `CON=C(N)c1ccc(CNC(=O)c2ccc3c(c2)[C@@H]2O[C@H]3c3ccc(-c4ccccc4F)cc32)cc1` [Example 240, (1R,8S)-12-(2-fluorophenyl)-N-{[4-(N′-methoxy-carbamimidoyl)phenyl]methyl}-15-oxatetracyclo-[6.6.1.0^2,^7.0^9,1^4]pentadeca-2,4,6,9,11,13-hexaene-4-carboxamide], the “KLKB1 pIC50” value came out at 4.

With `CON=C(N)c1ccc(CNC(=O)c2ccc3c(c2)[C@@H]2O[C@H]3c3ccc(-c4ccc(F)cc4)cc32)cc1` [Example 241, (1R,8S)-12-(4-fluorophenyl)-N-{[4-(N′-methoxy-carbamimidoyl)pheny]methyl}-15-oxatetracyclo-[6.6.1.0^2,^7.0^9,1^4]pentadeca-2,4,6,9,11,13-hexaene-4-carboxamide], the “KLKB1 pIC50” value came to 4.

For `CON=C(N)c1ccc(CNC(=O)c2ccc3c(c2)[C@@H]2O[C@H]3c3ccc(-c4ccc(Cl)s4)cc32)cc1` [Example 251, (1S,8R)-12-(5-chlorothiophen-2-yl)-N-({4-[N′-methoxycarbamimidoyl]phenyl}methyl)-15-oxatetracyclo[6.6.1.0^2,^7.0^9,1^4] pentadeca-2,4,6,9,11,13-hexaene-4-carboxamide], the “KLKB1 pIC50” value came to 4.

In the case of `CON=C(N)c1cc(F)c(CNC(=O)c2ccc3c(c2)[C@@H]2O[C@H]3c3ccc(-c4ccc(F)cc4F)cc32)c(F)c1` [Example 255, (1R,8S)-N-({2,6-difluoro-4-[N′-methoxy-carbamimidoyl]phenyl}methyl)-12-(2,4-difluorophenyl)-15-oxatetracyclo[6.6.1.0^2,^7.0^9,1^4]-pentadeca-2,4,6,9,11,13-hexaene-4-carboxamide], the “KLKB1 pIC50” value came to 6.18.

As to `NC(=NO)c1cc(F)c(CNC(=O)c2ccc3c(c2)[C@@H]2O[C@H]3c3ccc(-c4ccc(F)cc4F)cc32)c(F)c1` [Example 266, (1R,8S)-N-({2,6-difluoro-4-[N′-hydroxy-carbamimidoyl]phenyl}methyl)-12-(2,4-difluorophenyl)-15-oxatetracyclo[6.6.1.0^2,^7.0^9,1^4]-pentadeca-2,4,6,9,11,13-hexaene-4-carboxamide], the “KLKB1 pIC50” value was determined as 6.99.

For `CON=C(N)c1ccc(CNC(=O)c2ccc3c(c2)[C@@H]2O[C@H]3c3ccc(C4CC4)cc32)cc1` [Example 272, (1R,8S)-12-cyclopropyl-N-({4-[N′-methoxy-carbamimidoyl]phenyl}methyl)-15-oxatetracyclo[6.6.1.0^2,^7.0^9,1^4] pentadeca-2,4,6,9,11,13-hexaene-4-carboxamide], the “KLKB1 pIC50” value was determined as 5.61.

For the molecule `CON=C(N)c1cc(F)c(CNC(=O)c2ccc3c(c2)[C@@H]2O[C@H]3c3ccc(-c4nccs4)cc32)c(F)c1` [Example 274], the “KLKB1 pIC50” value was 5.86.

For the molecule `NC(=NO)c1ccc(CNC(=O)c2ccc3c(c2)[C@@H]2O[C@H]3c3ccc(-c4ccc(Cl)s4)cc32)cc1` [Example 276, (1S,8R)-12-(5-chlorothiophen-2-yl)-N-{[4-(N′-hydroxycarbamimidoyl)phenyl]methyl}-15-oxatetracyclo[6.6.1.0^2,^7.0^9,1^4] pentadeca-2,4,6,9,11,13-hexaene-4-carboxamide], the “KLKB1 pIC50” value is reported as 4.

On to “(±)-N4-[(6-amino-2,4- dimethylpyridin-3-yl)methyl]- 11-cyano-15-oxatetracyclo- [6.6.1.0^2,^7.0^9,1^4]pentadeca- 2,4,6,9,11,13-hexaene-4,12- dicarboxamide and (±)-N4-[(6- amino-2,4-dimethylpyridin-3- yl)methyl]-12-cyano-15- oxatetracyclo[6.6.1.0^2,^7.0^9,1^4] pentadeca-2,4,6,9,11,13- hexaene-4,11-dicarboxamide [Example 333]”, for which the “KLKB1 pIC50” value was found to be 5.64.

“(±)-N-[(4-carbamimidoylphenyl) methyl]-12-(4- fluorophenyl)-8-methyl-15- oxatetracyclo- [6.6.1.0^2,^7.0^9,1^4]pentadeca- 2,4,6,9,11,13-hexaene-4- carboxamide [Example 346]”: the “KLKB1 pIC50” value was determined as 7.26.

Take “(±)-N-[(6-amino-2,4- dimethylpyridin-3-yl) methyl]-12-(2,4- difluorophenyl)tetracyclo- [6.6.1.0^2,^7.0^9,1^4]hexadeca- 2,4,6,9,11,13-hexaene-4- carboxamide and (±)-N-[(6- amino-2,4-dimethylpyridin- 3-yl)methyl]-11-(2,4- difluorophenyl)tetracyclo [6.6.1.0^2,^7.0^9,1^4]hexadeca- 2,4,6,9,11,13-hexaene-4- carboxamide [Example 261]”: the “KLKB1 pIC50” value was 6.32.

The values above are taken from patent publication US10144746B2 (GLOBAL BLOOD THERAPEUTICS, INC., priority 2015, dated 2018).
